# Data from patent US10005739B2, “Quinazolinone and isoquinolinone derivative” (CHUGAI SEIYAKU KABUSHIKI KAISHA, priority 2013, dated 2018).
# Molecular target: DDR1 (Homo sapiens (Human), UniProt Q08345)
# Experiment: Measurement of DDR1 enzyme inhibitory activity (phosphorylation of biotinylated peptide, time-resolved fluorescence)
# Format: biochemical
# Details: human DDR1 enzyme, biotinylated peptide phosphorylation; read-out: DDR1 enzyme inhibition assay IC50
# Procedure: 1. Measurement of DDR1 Enzyme Inhibitory Activity
# The DDR1 enzyme inhibitory activity was determined with human DDR1 enzyme prepared using the baculovirus expression system, based on the inhibitory activity of phosphorylation of a biotinylated peptide ([…]) by the enzyme. The phosphorylated biotinylated peptide was detected using time-resolved fluorescence, with an anti-phosphorylated tyrosine antibody conjugated with europium cryptate and streptavidin conjugated with XL665 which is a derivative of allophycocyanin.
# Chain of DDR1 (Q08345 19-913): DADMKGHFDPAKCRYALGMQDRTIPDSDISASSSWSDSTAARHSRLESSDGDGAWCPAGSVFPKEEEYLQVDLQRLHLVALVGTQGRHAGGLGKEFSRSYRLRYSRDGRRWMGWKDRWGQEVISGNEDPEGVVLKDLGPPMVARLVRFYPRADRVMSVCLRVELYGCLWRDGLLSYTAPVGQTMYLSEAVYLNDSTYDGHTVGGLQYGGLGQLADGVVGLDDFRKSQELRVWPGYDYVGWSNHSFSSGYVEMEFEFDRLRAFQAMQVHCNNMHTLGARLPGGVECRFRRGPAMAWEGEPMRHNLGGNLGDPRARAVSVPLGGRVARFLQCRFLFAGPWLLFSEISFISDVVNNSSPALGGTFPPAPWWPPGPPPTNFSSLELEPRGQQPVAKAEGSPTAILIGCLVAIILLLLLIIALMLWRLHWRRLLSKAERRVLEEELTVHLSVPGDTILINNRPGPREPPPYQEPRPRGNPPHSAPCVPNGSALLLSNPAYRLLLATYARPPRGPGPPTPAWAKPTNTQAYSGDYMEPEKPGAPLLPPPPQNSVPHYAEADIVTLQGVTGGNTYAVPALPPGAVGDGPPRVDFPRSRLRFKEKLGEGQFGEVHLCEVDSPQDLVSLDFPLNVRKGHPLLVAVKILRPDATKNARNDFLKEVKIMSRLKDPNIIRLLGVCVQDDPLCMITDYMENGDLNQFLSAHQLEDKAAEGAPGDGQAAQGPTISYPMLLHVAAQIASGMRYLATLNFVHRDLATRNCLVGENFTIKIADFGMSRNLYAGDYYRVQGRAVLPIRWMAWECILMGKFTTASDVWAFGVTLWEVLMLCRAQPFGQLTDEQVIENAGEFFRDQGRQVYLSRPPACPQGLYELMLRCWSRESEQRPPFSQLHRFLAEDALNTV
row,IC50 [nM],Structure (SMILES)
1,390,"CCS(=O)(=O)c1ccc(Cl)cc1Cn1cnc2c(Br)cc(OC(F)(F)F)cc2c1=O [Compound E-12, 8-Bromo-3-[(5-chloro-2-ethylsulfonylphenyl)methyl]-6-(trifluoromethoxy)quinazolin-4-one]"
2,250,"CCS(=O)(=O)c1ccc(C#N)cc1Nn1cnc2cc(CN3CCNCC3)c(Br)cc2c1=O [Compound H-41, 3-[[6-Bromo-4-oxo-7-(piperazin-1-ylmethyl)quinazolin-3-yl]amino]-4-ethylsulfonylbenzonitrile]"
3,150,"CCS(=O)(=O)c1ccc(Br)cc1Nn1cnc2c(Br)cc(C(F)(F)F)cc2c1=O [Compound C-26, 8-Bromo-3-(5-bromo-2-ethylsulfonylanilino)-6-(trifluoromethyl)quinazolin-4-one]"
4,450,"CCSc1cc(Cl)c(C#N)cc1Nn1cnc2ccc(C(F)(F)F)cc2c1=O [Compound C-42, 2-Chloro-4-ethylsulfanyl-5-[[4-oxo-6-(trifluoromethyl)quinazolin-3-yl]amino]benzonitrile]"
5,210,"CCS(=O)(=O)c1ccc(C(F)(F)F)cc1Nn1cnc2c(Br)cc(C(F)(F)F)cc2c1=O [Compound C-35, 8-Bromo-3-[2-ethylsulfonyl-5-(trifluoromethyl)anilino]-6-(trifluoromethyl)quinazolin-4-one]"
6,93,"CCSc1cnc(Cl)cc1Nn1cnc2ccc(C(F)(F)F)cc2c1=O [Compound D-6, 3-[(2-Chloro-5-ethylsulfanylpyridin-4-yl)amino]-6-(trifluoromethyl)quinazolin-4-one]"
7,280,"CCS(=O)(=O)c1ccc(Br)cc1Nn1cnc2c(Br)cc(OC(F)(F)F)cc2c1=O [Compound C-24, 8-Bromo-3-(5-bromo-2-ethylsulfonylanilino)-6-(trifluoromethoxy)quinazolin-4-one]"
8,190,"CCSc1cc(Cl)c(Cl)cc1Nn1cnc2ccc(C(F)(F)F)cc2c1=O [Compound C-40, 3-(4,5-Dichloro-2-ethylsulfanylanilino)-6-(trifluoromethyl)quinazolin-4-one]"
9,600,"CCS(=O)(=O)c1ccc(Cl)cc1Cn1cnc2c(Br)cc(C)cc2c1=O [Compound E-2, 8-Bromo-3-[(5-chloro-2-ethylsulfonylphenyl)methyl]-6-methylquinazolin-4-one]"
10,430,"CCS(=O)(=O)c1ncc(Cl)cc1Nn1cnc2ccc(C(F)(F)F)cc2c1=O [Compound D-3, 3-[(5-Chloro-2-ethylsulfonylpyridin-3-yl)amino]-6-(trifluoromethyl)quinazolin-4-one]"
11,340,"CCSc1ccc(F)cc1Nn1cnc2c(Br)cc(OC(F)(F)F)cc2c1=O [Compound C-19, 8-Bromo-3-(2-ethylsulfanyl-5-fluoroanilino)-6-(trifluoromethoxy)quinazolin-4-one]"
12,150,"CCS(=O)(=O)c1ccc(Cl)cc1Cn1cnc2c(Br)c(C)c(Br)cc2c1=O [Compound E-17, 6,8-Dibromo-3-[(5-chloro-2-ethylsulfonylphenyl)methyl]-7-methylquinazolin-4-one]"
13,250,"CCS(=O)(=O)c1ccc(C#N)cc1Nn1cnc2cc(C)c(Br)cc2c1=O [Compound C-6, 3-[(6-Bromo-7-methyl-4-oxoquinazolin-3-yl)amino]-4-ethylsulfonylbenzonitrile]"
14,2080,"CCS(=O)(=O)c1ccc(N)cc1Cn1ccc2ccc(C(F)(F)F)cc2c1=O [Compound F-7, 2-[(5-Amino-2-ethylsulfonylphenyl)methyl]-7-(trifluoromethyl)isoquinolin-1-one]"
15,120,"CCS(=O)(=O)c1ccc(Cl)cc1Cn1cnc2c(Cl)cc(OC(F)(F)F)cc2c1=O [Compound E-14, 8-Chloro-3-[(5-chloro-2-ethylsulfonylphenyl)methyl]-6-(trifluoromethoxy)quinazolin-4-one]"
16,410,"CCSc1ncc(Cl)cc1Nn1cnc2ccc(C(F)(F)F)cc2c1=O [Compound D-2, 3-[(5-Chloro-2-ethylsulfanylpyridin-3-yl)amino]-6-(trifluoromethyl)quinazolin-4-one]"
17,110,"CCS(=O)(=O)c1cc(Cl)c(Cl)cc1Nn1cnc2ccc(C(F)(F)F)cc2c1=O [Compound C-41, 3-(4,5-Dichloro-2-ethylsulfonylanilino)-6-(trifluoromethyl)quinazolin-4-one]"

# More lines, now with the values behind:
row,Structure (SMILES),IC50 [nM]
1,"CCCc1ccc2ncn(Nc3cc(Cl)ccc3S(=O)(=O)CC)c(=O)c2c1 [Compound A-55, 3-(5-Chloro-2-ethylsulfonylanilino)-6-propylquinazolin-4-one]",240
2,"CCS(=O)(=O)c1ccc(Cl)cc1Nn1cnc2ccc(I)cc2c1=O [Compound A-61, 3-(5-Chloro-2-ethylsulfonylanilino)-6-iodoquinazolin-4-one]",290
3,"CCS(=O)(=O)c1ccc(Cl)cc1Nn1cnc2cnc(F)cc2c1=O [Compound A-20, 3-(5-Chloro-2-ethylsulfonylanilino)-6-fluoropyrido[3,4-d]pyrimidin-4-one]",7640
4,"CCS(=O)(=O)c1ccc(Cl)cc1Nn1cnc2ccc(OC)cc2c1=O [Compound A-35, 3-(5-Chloro-2-ethylsulfonylanilino)-6-methoxyquinazolin-4-one]",95
5,"CCS(=O)(=O)c1ccc(Cl)cc1Nn1cnc2ccc(SC)cc2c1=O [Compound A-66, 3-(5-Chloro-2-ethylsulfonylanilino)-6-methylsulfanylquinazolin-4-one]",52
6,"CCSc1ccc(Cl)cc1Nn1cnc2ccc(C)cc2c1=O [Compound A-50, 3-(5-Chloro-2-ethylsulfanylanilino)-6-methylquinazolin-4-one]",57
7,"C=C(C)c1ccc2ncn(Nc3cc(Cl)ccc3S(=O)(=O)CC)c(=O)c2c1 [Compound A-62, 3-(5-Chloro-2-ethylsulfonylanilino)-6-prop-1-en-2-ylquinazolin-4-one]",110
8,"CCOc1ccc2ncn(Nc3cc(Cl)ccc3S(=O)(=O)CC)c(=O)c2c1 [Compound A-37, 3-(5-Chloro-2-ethylsulfonylanilino)-6-ethoxyquinazolin-4-one]",430
9,"C=Cc1ccc2ncn(Nc3cc(Cl)ccc3S(=O)(=O)CC)c(=O)c2c1 [Compound A-64, 3-(5-Chloro-2-ethylsulfonylanilino)-6-ethenylquinazolin-4-one]",200
10,"CCCSc1ccc(Cl)cc1Nn1cnc2c(Br)cc(C)cc2c1=O [Compound B-3, 8-Bromo-3-(5-chloro-2-propylsulfanylanilino)-6-methylquinazolin-4-one]",140
11,"CC(C)Cc1ccc(Cl)cc1Nn1cnc2ccc(OC(F)(F)F)cc2c1=O [Compound B-19, 3-[5-Chloro-2-(2-methylpropyl)anilino]-6-(trifluoromethoxy)quinazolin-4-one]",330
12,"CCS(=O)(=O)c1ccc(Cl)cc1Nn1cnc2ccc(F)cc2c1=O [Compound A-29, 3-(5-Chloro-2-ethylsulfonylanilino)-6-fluoroquinazolin-4-one]",340
13,"CCSc1ccc(Cl)cc1Nn1cnc2ccc([N+](=O)[O-])cc2c1=O [Compound A-56, 3-(5-Chloro-2-ethylsulfanylanilino)-6-nitroquinazolin-4-one]",99
14,"Cc1cc(Br)c2ncn(Nc3cc(Cl)ccc3S(C)(=O)=O)c(=O)c2c1 [Compound B-2, 8-Bromo-3-(5-chloro-2-methylsulfonylanilino)-6-methylquinazolin-4-one]",160
15,"CCS(=O)(=O)c1ccc(Cl)cc1Nn1cnc2cc(Br)c(C(F)F)cc2c1=O [Compound A-6, 7-Bromo-3-(5-chloro-2-ethylsulfonylanilino)-6-(difluoromethyl)quinazolin-4-one]",70
16,"CCS(=O)(=O)c1ccc(Cl)cc1Nn1cnc2c(Br)cc(C)cc2c1=O [Compound A-2, 8-Bromo-3-(5-chloro-2-ethylsulfonylanilino)-6-methylquinazolin-4-one]",40
17,"CCS(=O)(=O)c1ccc(Cl)cc1Nn1cnc2ccc(N)cc2c1=O [Compound A-58, 6-Amino-3-(5-chloro-2-ethylsulfonylanilino)quinazolin-4-one]",4050
18,"CCSc1ccc(Cl)cc1Nn1cnc2cc3c(cc2c1=O)OCO3 [Compound A-40, 7-(5-Chloro-2-ethylsulfanylanilino)-[1,3]dioxolo[4,5-g]quinazolin-8-one]",350
19,"CCS(=O)(=O)c1ccc(Cl)cc1Nn1cnc2ncc(C(F)(F)F)cc2c1=O [Compound A-24, 3-(5-Chloro-2-ethylsulfonylanilino)-6-(trifluoromethyl)pyrido[2,3-d]pyrimidin-4-one]",190
20,"CCS(=O)(=O)c1ccc(Cl)cc1Nn1cnc2ccc(C)cc2c1=O [Compound A-51, 3-(5-Chloro-2-ethylsulfonylanilino)-6-methylquinazolin-4-one]",110
21,"CCSc1ccc(Cl)cc1Nn1cnc2ccc(OC)cc2c1=O [Compound A-34, 3-(5-Chloro-2-ethylsulfanylanilino)-6-methoxyquinazolin-4-one]",68
22,"CCS(=O)(=O)c1ccc(Cl)cc1Nn1cnc2ncc(Br)cc2c1=O [Compound A-17, 6-Bromo-3-(5-chloro-2-ethylsulfonylanilino)pyrido[2,3-d]pyrimidin-4-one]",270
23,"CCS(=O)(=O)c1ccc(Cl)cc1Nn1cnc2cc(F)c(F)cc2c1=O [Compound A-31, 3-(5-Chloro-2-ethylsulfonylanilino)-6,7-difluoroquinazolin-4-one]",380

# Same assay, conditions: read-out: DDR1 enzyme inhibition assay IC50
row,IC50 [nM],Structure (SMILES)
1,140,"CCS(=O)(=O)c1ccc(Cl)cc1Cn1cnc2cc(CN3CC[C@H](N)C3)c(Br)cc2c1=O [Compound J-8, 7-[[(3S)-3-Aminopyrrolidin-1-yl]methyl]-6-bromo-3-[(5-chloro-2-ethylsulfonylphenyl)methyl]quinazolin-4-one]"
2,120,"CCS(=O)(=O)c1ccc(Cl)cc1Cn1cnc2cc(CN3CCC(N4CCCCC4)C3)c(Br)cc2c1=O (stereo not drawn) [Compound J-9, 6-Bromo-3-[(5-chloro-2-ethylsulfonylphenyl)methyl]-7-[(3-piperidin-1-ylpyrrolidin-1-yl)methyl]quinazolin-4-one]"
